Assay results from PubChem BioAssay (NCI).
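Cultured in 96-well plates, cells were exposed to test compound for 48 hours across five concentrations. GI50 = concentration required for 50% inhibition of growth. TGI: concentration producing complete growth inhibition.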

Experiments:
Test in all cases: NCI tumour cell line growth inhibition, 48 h
T-47D breast = test system: T-47D breast
NCI-H226 lung = test system: NCI-H226 lung
SF-268 CNS = test system: SF-268 CNS
UACC-62 melanoma = test system: UACC-62 melanoma
SK-MEL-5 melanoma = test system: SK-MEL-5 melanoma
HT29 colon = test system: HT29 colon
PC-3 prostate = test system: PC-3 prostate
HOP-92 NSCLC = test system: HOP-92 NSCLC
HCC-2998 colon = test system: HCC-2998 colon
MOLT-4 leukemia = test system: MOLT-4 leukemia
U251 CNS = test system: U251 CNS
BT-549 breast = test system: BT-549 breast
HOP-62 NSCLC = test system: HOP-62 NSCLC
NCI/ADR-RES ovarian = test system: NCI/ADR-RES ovarian
A498 renal = test system: A498 renal
A549 NSCLC = test system: A549 NSCLC
UO-31 renal = test system: UO-31 renal
SNB-19 CNS = test system: SNB-19 CNS
KM12 colon = test system: KM12 colon
NCI-H23 lung = test system: NCI-H23 lung
SN12C renal = test system: SN12C renal
HCT-15 colon = test system: HCT-15 colon
CCRF-CEM leukemia = test system: CCRF-CEM leukemia
UACC-257 melanoma = test system: UACC-257 melanoma
ACHN renal = test system: ACHN renal
SF-295 CNS = test system: SF-295 CNS
SNB-75 CNS = test system: SNB-75 CNS
DU-145 prostate = test system: DU-145 prostate
OVCAR-8 ovarian = test system: OVCAR-8 ovarian
NCI-H522 lung = test system: NCI-H522 lung
RXF 393 renal = test system: RXF 393 renal
SK-MEL-28 melanoma = test system: SK-MEL-28 melanoma
MCF7 breast = test system: MCF7 breast
TK-10 renal = test system: TK-10 renal
COLO 205 colon = test system: COLO 205 colon
RPMI-8226 leukemia = test system: RPMI-8226 leukemia
SF-539 CNS = test system: SF-539 CNS
MDA-MB-435 = test system: MDA-MB-435
CAKI-1 renal = test system: CAKI-1 renal
K-562 leukemia = test system: K-562 leukemia
SK-MEL-2 melanoma = test system: SK-MEL-2 melanoma
NCI-H460 lung = test system: NCI-H460 lung
HL-60(TB) leukemia = test system: HL-60(TB) leukemia
HS 578T breast = test system: HS 578T breast
LOX IMVI melanoma = test system: LOX IMVI melanoma
MALME-3M melanoma = test system: MALME-3M melanoma
OVCAR-5 ovarian = test system: OVCAR-5 ovarian
HCT-116 colon = test system: HCT-116 colon
OVCAR-3 ovarian = test system: OVCAR-3 ovarian
SW-620 colon = test system: SW-620 colon
M14 melanoma = test system: M14 melanoma
786-0 renal = test system: 786-0 renal
OVCAR-4 ovarian = test system: OVCAR-4 ovarian
MDA-MB-231 breast = test system: MDA-MB-231 breast
EKVX NSCLC = test system: EKVX NSCLC

## COc1ccc(C(=O)COc2cccc(/C=C3\Oc4ccc5ccccc5c4C3=O)c2)cc1
T-47D breast
  GI50: 1.98 µM
  TGI: 5.6 µM
NCI-H226 lung
  GI50: 6.58 µM
  TGI: 22.4 µM
SF-268 CNS
  GI50: 3.72 µM
  TGI: 14 µM
UACC-62 melanoma
  GI50: 10.7 µM
  TGI: 22.5 µM
SK-MEL-5 melanoma
  GI50: 10.9 µM
  TGI: 23.9 µM
HT29 colon
  GI50: 6.92 µM
  TGI: 44.6 µM
PC-3 prostate
  GI50: 1.54 µM
  TGI: 3.23 µM
HOP-92 NSCLC
  GI50: 0.0932 µM
  TGI: 25.6 µM
HCC-2998 colon
  GI50: 15.3 µM
  TGI: 28.8 µM
MOLT-4 leukemia
  GI50: 2.85 µM
  TGI: 21.6 µM
U251 CNS
  GI50: 6.42 µM
  TGI: 19.6 µM
BT-549 breast
  GI50: 2.45 µM
  TGI: 10.3 µM
HOP-62 NSCLC
  GI50: 14.9 µM
  TGI: 28.1 µM
NCI/ADR-RES ovarian
  GI50: 16.7 µM
  TGI: 33.2 µM
A498 renal
  GI50: 20.6 µM
  TGI: 37.1 µM
A549 NSCLC
  GI50: 21.1 µM
  TGI: 52.5 µM
UO-31 renal
  GI50: 6.42 µM
  TGI: 23.2 µM
SNB-19 CNS
  GI50: 15.5 µM
  TGI: 29.4 µM
KM12 colon
  GI50: 3.39 µM
  TGI: 14.6 µM
NCI-H23 lung
  GI50: 3.38 µM
  TGI: 16.8 µM
SN12C renal
  GI50: 1.76 µM
  TGI: 3.85 µM
HCT-15 colon
  GI50: 2.94 µM
  TGI: 13.7 µM
CCRF-CEM leukemia
  GI50: 0.327 µM
  TGI: 1.44 µM
UACC-257 melanoma
  GI50: 14.5 µM
  TGI: 32.4 µM
ACHN renal
  GI50: 15.2 µM
  TGI: 29 µM
SF-295 CNS
  GI50: 14.3 µM
  TGI: 36.4 µM
SNB-75 CNS
  GI50: 12.3 µM
  TGI: 29 µM
DU-145 prostate
  GI50: 4.19 µM
  TGI: 16 µM
OVCAR-8 ovarian
  GI50: 4.57 µM
  TGI: 14.9 µM
NCI-H522 lung
  GI50: 1.46 µM
  TGI: 3.29 µM
RXF 393 renal
  GI50: 0.545 µM
  TGI: 1.77 µM
SK-MEL-28 melanoma
  GI50: 15.3 µM
  TGI: 28.7 µM
MCF7 breast
  GI50: 2.45 µM
  TGI: 16.1 µM
TK-10 renal
  GI50: 12 µM
  TGI: 24.7 µM
COLO 205 colon
  GI50: 2.45 µM
  TGI: 6.94 µM
RPMI-8226 leukemia
  GI50: 0.345 µM
  TGI: 2.01 µM
SF-539 CNS
  GI50: 13.4 µM
  TGI: 26.3 µM
MDA-MB-435
  GI50: 5.24 µM
  TGI: 20 µM
CAKI-1 renal
  GI50: 10.7 µM
  TGI: 23.5 µM
K-562 leukemia
  GI50: 1.53 µM
  TGI: 3.73 µM
SK-MEL-2 melanoma
  GI50: 3.76 µM
  TGI: 16.6 µM
NCI-H460 lung
  GI50: 20.6 µM
  TGI: 52.6 µM
HL-60(TB) leukemia
  GI50: 3.19 µM
  TGI: 18.7 µM
HS 578T breast
  GI50: 5.39 µM
  TGI: 25.8 µM
LOX IMVI melanoma
  GI50: 1.56 µM
  TGI: 3.08 µM
MALME-3M melanoma
  GI50: 1.74 µM
  TGI: 5.51 µM
OVCAR-5 ovarian
  GI50: 12.7 µM
  TGI: 25.3 µM
HCT-116 colon
  GI50: 2.31 µM
  TGI: 4.94 µM
OVCAR-3 ovarian
  GI50: 1.78 µM
  TGI: 3.54 µM
SW-620 colon
  GI50: 1.87 µM
  TGI: 3.77 µM
M14 melanoma
  GI50: 4.8 µM
  TGI: 18.1 µM
786-0 renal
  GI50: 2.22 µM
  TGI: 6.73 µM
OVCAR-4 ovarian
  GI50: 5.08 µM
  TGI: 17.5 µM
MDA-MB-231 breast
  GI50: 11.9 µM
  TGI: 25.6 µM
EKVX NSCLC
  GI50: 14.4 µM
  TGI: 42.8 µM
